According to patent US20080009418A1, “Selective Inhibitors” (Alchemia LTD., priority 2004, published 2008):

How the values were obtained:
Mouse urotensin (mUR2) = biological target: T1, Mouse urotensin (mUR2) (Mus musculus, UniProt Q8VIH9); assay: Radioligand binding, mouse urotensin mUR2 membranes, FlashPlate, [125I]-Urotensin II; settings: compound at 10 μM, [125I]-Urotensin II
T1 construct: purchased Perkin Elmer Biosignal
T1 sequence (Q8VIH9 1-385): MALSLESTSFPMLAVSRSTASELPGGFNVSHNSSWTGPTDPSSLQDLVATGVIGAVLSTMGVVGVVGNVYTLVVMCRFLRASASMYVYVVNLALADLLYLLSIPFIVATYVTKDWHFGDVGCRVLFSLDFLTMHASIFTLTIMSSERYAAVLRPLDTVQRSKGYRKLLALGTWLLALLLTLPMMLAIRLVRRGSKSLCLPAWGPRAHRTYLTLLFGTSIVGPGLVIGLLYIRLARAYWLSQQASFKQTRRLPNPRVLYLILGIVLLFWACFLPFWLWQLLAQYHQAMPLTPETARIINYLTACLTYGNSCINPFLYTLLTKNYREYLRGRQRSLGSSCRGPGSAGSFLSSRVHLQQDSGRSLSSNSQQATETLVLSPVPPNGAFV
In short: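 Cloned mouse urotensin (mUR2) receptor membranes from Perkin Elmer Biosignal were immobilized in FlashPlate microplates using a proprietary coating. Each well got 19.5 μl buffer, then 0.5 μl of DMSO, reference ligand, or compound. Adding 5 μl of [125I]-Urotensin II, diluted to 5× final concentration in binding buffer, started binding. Plates were sealed with TopSeal-A and incubated 1 hour at room temperature in the dark. Wells were counted for 30 seconds each on a TopCount after a 60-second delay, and percentage inhibition was calculated.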

Human κ-Opioid (KOP) = biological target: T2, Human κ-Opioid (KOP) (Homo sapiens, UniProt P41145); assay: Radioligand binding, human κ-opioid (KOP) membranes, filtration, [3H]-Diprenorphine; settings: compound at 10 μM, [3H]-Diprenorphine
T2 construct: purchased Perkin Elmer Biosignal
In short: (§1)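 Membranes from cloned human receptors were incubated with compound and radioligand for 1 hour at room temperature. Bound ligand was collected on 0.3% PEI-soaked filters, washed with cold 50 mM Tris-HCl pH 7.4, and counted by scintillation. Percent inhibition was computed against DMSO totals and reference-ligand nonspecific wells.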

[1] = biological target: T3, Human melanin-concentrating hormone (MCH1) (Homo sapiens, UniProt Q99705); assay: Radioligand binding, human melanin-concentrating hormone MCH1 membranes, FlashPlate, [125I]-S36057; settings: compound at 10 μM
T3 construct: purchased Perkin Elmer Biosignal
In short: (§2)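 Cloned human receptor membranes were coated onto FlashPlate wells and incubated with radioligand and compound (added from a 0.5 mM DMSO daughter plate) for 1 hour at room temperature in the dark. Scintillation counting gave percent inhibition, with DMSO defining total and reference ligand defining non-specific binding.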

Human Melanocortin (MC3) = biological target: T4, Human Melanocortin (MC3) (Homo sapiens, UniProt P41968); assay: Radioligand binding, human melanocortin MC3 membranes, FlashPlate, [125I]-NDP-αMSH; settings: compound at 10 μM, [125I]-NDP-αMSH
T4 construct: purchased Perkin Elmer Biosignal
In short: as §2

Human melanocortin (MC5) = biological target: T5, Human melanocortin (MC5) (Homo sapiens, UniProt P33032); assay: Radioligand binding, human melanocortin MC5 membranes, FlashPlate, [125I]-NDP-αMSH; settings: compound at 10 μM, [125I]-NDP-αMSH
T5 construct: purchased Perkin Elmer Biosignal
In short: as §2

Human Melanocortin (MC4) = biological target: T6, Human Melanocortin (MC4) (Homo sapiens, UniProt P32245); assay: Radioligand binding, human melanocortin MC4 membranes, FlashPlate, [125I]-NDP-αMSH; settings: compound at 10 μM, [125I]-NDP-αMSH
T6 construct: purchased Perkin Elmer Biosignal
In short: as §2

Human μ-opioid (MOP) = biological target: T7, Human μ-opioid (MOP) (Homo sapiens, UniProt P35372); assay: Radioligand binding, human μ-opioid (MOP) membranes, FlashPlate, [3H]-Naloxone; settings: compound at 10 μM, [3H]-Naloxone
T7 construct: purchased Perkin Elmer Biosignal
In short: as §2

[2] = biological target: T8, Human neuropeptide Y (NPY-Y1) (Homo sapiens, UniProt P25929); assay: Radioligand binding, human neuropeptide Y NPY-Y1 membranes, FlashPlate, [125I]-PYY; settings: compound at 10 μM, [125I]-PYY
T8 construct: purchased Perkin Elmer Biosignal
T8 sequence (P25929 1-384): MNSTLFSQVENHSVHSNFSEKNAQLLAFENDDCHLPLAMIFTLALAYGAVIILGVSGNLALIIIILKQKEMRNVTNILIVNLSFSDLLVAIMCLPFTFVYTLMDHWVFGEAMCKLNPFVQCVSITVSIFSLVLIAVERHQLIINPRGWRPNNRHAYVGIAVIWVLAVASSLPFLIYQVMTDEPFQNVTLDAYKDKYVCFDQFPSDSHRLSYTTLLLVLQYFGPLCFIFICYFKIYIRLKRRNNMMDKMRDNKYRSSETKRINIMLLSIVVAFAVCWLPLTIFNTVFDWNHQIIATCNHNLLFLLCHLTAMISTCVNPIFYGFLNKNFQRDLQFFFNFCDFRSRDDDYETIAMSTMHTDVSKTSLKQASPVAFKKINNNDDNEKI
In short: as §2

Human neurokinin (NK1) = biological target: T9, Human neurokinin (NK1) (Homo sapiens, UniProt P25103); assay: Radioligand binding, human neurokinin NK1 membranes, filtration, [125I]-Substance P; settings: compound at 10 μM, [125I]-Substance P
T9 construct: purchased Perkin Elmer Biosignal
In short: as §1

Human opioid (ORL1) = biological target: T10, Human opioid (ORL1) (Homo sapiens, UniProt P41146); assay: Radioligand binding, human opioid ORL1 membranes, FlashPlate, [125I]-Nociceptin; settings: compound at 10 μM, [125I]-Nociceptin
T10 construct: purchased Perkin Elmer Biosignal
In short: as §2

Human δ-opioid (DOP) = biological target: T11, Human δ-opioid (DOP) (Homo sapiens, UniProt P41143); assay: Radioligand binding, human δ-opioid (DOP) membranes, FlashPlate, [3H]-Bremazocine; settings: compound at 10 μM, [3H]-Bremazocine
T11 construct: purchased Perkin Elmer Biosignal
In short: as §2

T11 sequence (P41143 whole entry): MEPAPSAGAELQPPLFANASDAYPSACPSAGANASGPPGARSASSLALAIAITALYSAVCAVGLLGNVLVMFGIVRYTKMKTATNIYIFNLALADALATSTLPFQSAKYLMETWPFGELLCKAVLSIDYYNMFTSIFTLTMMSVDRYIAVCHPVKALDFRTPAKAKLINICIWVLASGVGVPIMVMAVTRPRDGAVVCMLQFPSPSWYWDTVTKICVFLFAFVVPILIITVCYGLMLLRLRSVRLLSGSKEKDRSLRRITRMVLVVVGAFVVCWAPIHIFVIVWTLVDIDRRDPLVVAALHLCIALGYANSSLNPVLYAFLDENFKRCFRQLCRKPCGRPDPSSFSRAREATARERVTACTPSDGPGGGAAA
T7 sequence (P35372 whole entry): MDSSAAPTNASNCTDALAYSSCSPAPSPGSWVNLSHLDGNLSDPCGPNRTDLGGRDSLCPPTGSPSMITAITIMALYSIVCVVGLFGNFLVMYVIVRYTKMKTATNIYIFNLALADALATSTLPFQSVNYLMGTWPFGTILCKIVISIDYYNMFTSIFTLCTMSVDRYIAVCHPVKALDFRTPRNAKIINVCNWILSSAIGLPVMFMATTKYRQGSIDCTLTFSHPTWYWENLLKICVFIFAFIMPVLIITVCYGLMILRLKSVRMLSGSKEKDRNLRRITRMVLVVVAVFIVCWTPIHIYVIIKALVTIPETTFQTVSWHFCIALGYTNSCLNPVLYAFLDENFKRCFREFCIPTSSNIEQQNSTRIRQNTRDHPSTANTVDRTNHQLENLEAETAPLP
T9 sequence (P25103 whole entry): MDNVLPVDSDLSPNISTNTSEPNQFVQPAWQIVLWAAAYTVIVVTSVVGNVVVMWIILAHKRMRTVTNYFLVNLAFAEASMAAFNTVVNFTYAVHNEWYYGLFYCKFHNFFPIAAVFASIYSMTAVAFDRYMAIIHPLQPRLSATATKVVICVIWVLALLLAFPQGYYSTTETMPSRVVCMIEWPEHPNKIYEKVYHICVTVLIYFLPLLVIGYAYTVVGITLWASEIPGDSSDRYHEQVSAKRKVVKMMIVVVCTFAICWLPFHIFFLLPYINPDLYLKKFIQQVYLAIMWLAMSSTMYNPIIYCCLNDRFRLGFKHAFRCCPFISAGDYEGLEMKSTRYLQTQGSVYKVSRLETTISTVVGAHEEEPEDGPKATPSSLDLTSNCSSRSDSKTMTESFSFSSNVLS
T6 sequence (P32245 whole entry): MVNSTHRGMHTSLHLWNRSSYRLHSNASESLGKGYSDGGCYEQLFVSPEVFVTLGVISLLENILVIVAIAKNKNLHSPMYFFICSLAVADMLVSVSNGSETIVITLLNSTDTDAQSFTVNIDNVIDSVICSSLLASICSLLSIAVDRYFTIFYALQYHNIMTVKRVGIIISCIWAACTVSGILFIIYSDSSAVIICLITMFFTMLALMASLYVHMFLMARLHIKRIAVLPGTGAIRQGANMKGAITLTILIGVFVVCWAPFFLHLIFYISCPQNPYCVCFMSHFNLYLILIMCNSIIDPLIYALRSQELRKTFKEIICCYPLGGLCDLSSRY
T5 sequence (P33032 whole entry): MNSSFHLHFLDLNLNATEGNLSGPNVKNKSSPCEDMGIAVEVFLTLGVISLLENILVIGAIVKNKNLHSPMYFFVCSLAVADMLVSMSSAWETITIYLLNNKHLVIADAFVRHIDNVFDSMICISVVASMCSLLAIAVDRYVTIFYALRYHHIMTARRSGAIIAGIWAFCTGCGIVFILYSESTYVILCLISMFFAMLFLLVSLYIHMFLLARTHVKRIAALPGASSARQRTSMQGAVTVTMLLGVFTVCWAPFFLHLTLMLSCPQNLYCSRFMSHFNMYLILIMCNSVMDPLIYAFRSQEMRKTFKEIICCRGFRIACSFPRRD
T4 sequence (P41968 whole entry): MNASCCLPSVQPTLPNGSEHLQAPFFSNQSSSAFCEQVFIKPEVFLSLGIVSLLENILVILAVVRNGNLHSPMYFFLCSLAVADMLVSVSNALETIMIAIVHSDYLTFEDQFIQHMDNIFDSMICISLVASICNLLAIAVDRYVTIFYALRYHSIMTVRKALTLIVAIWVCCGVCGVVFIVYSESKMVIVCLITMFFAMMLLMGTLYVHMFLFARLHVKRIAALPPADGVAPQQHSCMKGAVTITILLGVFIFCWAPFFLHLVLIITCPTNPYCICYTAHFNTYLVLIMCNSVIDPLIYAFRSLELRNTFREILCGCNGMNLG
T10 sequence (P41146 whole entry): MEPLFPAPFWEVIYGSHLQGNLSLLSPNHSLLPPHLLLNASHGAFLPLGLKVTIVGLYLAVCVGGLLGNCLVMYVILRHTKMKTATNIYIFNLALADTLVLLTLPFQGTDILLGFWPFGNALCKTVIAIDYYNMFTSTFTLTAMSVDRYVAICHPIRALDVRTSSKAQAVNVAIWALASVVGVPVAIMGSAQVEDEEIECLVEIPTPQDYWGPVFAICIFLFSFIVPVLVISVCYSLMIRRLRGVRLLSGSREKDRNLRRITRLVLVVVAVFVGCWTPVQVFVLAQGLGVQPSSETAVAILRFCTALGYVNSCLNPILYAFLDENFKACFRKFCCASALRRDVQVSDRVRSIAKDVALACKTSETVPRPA
T3 sequence (Q99705 whole entry): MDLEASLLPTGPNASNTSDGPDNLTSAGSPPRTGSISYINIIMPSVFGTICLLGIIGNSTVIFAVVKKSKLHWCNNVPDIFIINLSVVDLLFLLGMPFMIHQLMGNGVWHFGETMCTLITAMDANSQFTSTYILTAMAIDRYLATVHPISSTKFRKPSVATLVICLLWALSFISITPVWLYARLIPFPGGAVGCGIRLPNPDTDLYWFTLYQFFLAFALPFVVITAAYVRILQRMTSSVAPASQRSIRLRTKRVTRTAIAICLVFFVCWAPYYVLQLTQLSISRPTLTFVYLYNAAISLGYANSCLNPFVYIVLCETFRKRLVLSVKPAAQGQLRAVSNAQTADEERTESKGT
T2 sequence (P41145 whole entry): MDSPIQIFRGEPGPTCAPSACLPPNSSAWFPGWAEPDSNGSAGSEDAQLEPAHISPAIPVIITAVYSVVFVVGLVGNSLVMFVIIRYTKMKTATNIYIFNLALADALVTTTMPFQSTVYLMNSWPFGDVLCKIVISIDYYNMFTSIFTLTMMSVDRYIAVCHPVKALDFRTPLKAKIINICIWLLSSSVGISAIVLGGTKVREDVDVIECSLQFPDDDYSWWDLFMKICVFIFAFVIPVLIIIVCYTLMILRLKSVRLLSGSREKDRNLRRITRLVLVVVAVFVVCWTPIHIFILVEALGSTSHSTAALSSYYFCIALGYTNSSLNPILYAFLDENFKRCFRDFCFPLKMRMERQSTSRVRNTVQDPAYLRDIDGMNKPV

CSC1OC(COCc2cccc(N)c2)C(O)C(OCc2ccccc2)C1NC(=O)Cc1ccccc1 (stereo not shown) [compound 325]
A11: inhibition of radioligand binding, mouse urotensin (mUR2) (Mouse urotensin (mUR2)): − (“−” indicates less than 50% inhibition at 10 μM) | A2: inhibition of radioligand binding, human κ-opioid (KOP) (Human κ-Opioid (KOP)): − (“−” indicates less than 50% inhibition at 10 μM) | A6: inhibition of radioligand binding, human melanin-concentrating hormone (MCH1) ([1]; [125I]-S36057): − (“−” indicates less than 50% inhibition at 10 μM) | A3: inhibition of radioligand binding, human melanocortin (MC3) (Human Melanocortin (MC3)): − (“−” indicates less than 50% inhibition at 10 μM) | A5: inhibition of radioligand binding, human melanocortin (MC5) (Human melanocortin (MC5); 10 µM): + (“+” indicates greater than 50% inhibition at 10 μM) | A4: inhibition of radioligand binding, human melanocortin (MC4) (Human Melanocortin (MC4)): − (“−” indicates less than 50% inhibition at 10 μM) | A7: inhibition of radioligand binding, human μ-opioid (MOP) (Human μ-opioid (MOP)): − (“−” indicates less than 50% inhibition at 10 μM) | A9: inhibition of radioligand binding, human neuropeptide Y (NPY-Y1) [2]: − (“−” indicates less than 50% inhibition at 10 μM) | A8: inhibition of radioligand binding, human neurokinin (NK1) (Human neurokinin (NK1)): + (“+” indicates greater than 50% inhibition at 10 μM) | A10: inhibition of radioligand binding, human opioid (ORL1) (Human opioid (ORL1)): − (“−” indicates less than 50% inhibition at 10 μM) | A1: inhibition of radioligand binding, human δ-opioid (DOP) (Human δ-opioid (DOP)): − (“−” indicates less than 50% inhibition at 10 μM)

COCC1OC(OCc2ccc(Cl)cc2)C(NC(=O)CCN)C(OCc2ccc(Cl)cc2)C1O (stereo not shown) [compound 201]
A11: inhibition of radioligand binding (Mouse urotensin (mUR2); FlashPlate): − (“−” indicates less than 50% inhibition at 10 μM) | A2: inhibition of radioligand binding (Human κ-Opioid (KOP); filtration): − (“−” indicates less than 50% inhibition at 10 μM) | A6: inhibition of radioligand binding ([1]; [125I]-S36057, FlashPlate): − (“−” indicates less than 50% inhibition at 10 μM) | A3: inhibition of radioligand binding (Human Melanocortin (MC3); FlashPlate): − (“−” indicates less than 50% inhibition at 10 μM) | A5: inhibition of radioligand binding (Human melanocortin (MC5); FlashPlate): + (“+” indicates greater than 50% inhibition at 10 μM) | A4: inhibition of radioligand binding (Human Melanocortin (MC4); FlashPlate): − (“−” indicates less than 50% inhibition at 10 μM) | A7: inhibition of radioligand binding (Human μ-opioid (MOP); FlashPlate): − (“−” indicates less than 50% inhibition at 10 μM) | A9: inhibition of radioligand binding ([2]; FlashPlate): − (“−” indicates less than 50% inhibition at 10 μM) | A8: inhibition of radioligand binding (Human neurokinin (NK1); filtration): + (“+” indicates greater than 50% inhibition at 10 μM) | A10: inhibition of radioligand binding (Human opioid (ORL1); FlashPlate): − (“−” indicates less than 50% inhibition at 10 μM) | A1: inhibition of radioligand binding (Human δ-opioid (DOP); FlashPlate): − (“−” indicates less than 50% inhibition at 10 μM)
